This note sets out measurements from US8569336B2, “Compounds for the treatment of inflammatory disorders” (priority 2008, dated 2013).

Series [1] can be described thus: Area under the curve determinations of plasma levels in rats (rrAUC), oral 10 mg/kg. In kind it is in vivo. Particulars: rat, read-out: RR AUC (rapid rat AUC, rrAUC).
The target of series [2] is T1, purified catalytic domain of recombinant human TACE (rhTACEc) (Homo sapiens, UniProt P78536, N452Q/S266A).
T1 construct: 6xHis (C); made in house; host or cells: baculovirus/Hi5 insect cells
In words: TACE kinetic assay: cleavage of internally quenched peptide substrate TNF-FRET 2 (Ki). In kind it is biochemical. To be noted: TNF-FRET 2 substrate.

Series [3] deals with TNF-α production from human whole blood. In words: Inhibition of TNF-α production from human whole blood (hWBA), LPS stimulated, ELISA. Format: cell-based. To be noted: Homo sapiens, TNF-α by ELISA, read-out: hWBA (IC50). In general terms: ELISA stands for enzyme-linked immunosorbent assay.
[4] abbreviates: 3.5 h, human whole blood diluted 1:1, LPS stimulated, 3.5 h.
The mark [5] stands for this setting: LPS-stimulated human whole blood.
[6] abbreviates: plasma, blood collected 0.5-6 h post-dosing.
Setting [7] is: human whole blood diluted 1:1, LPS stimulated.

Where two headings read alike, the source gives them in different places.

T1 sequence (P78536 215-477 S266A/N452Q): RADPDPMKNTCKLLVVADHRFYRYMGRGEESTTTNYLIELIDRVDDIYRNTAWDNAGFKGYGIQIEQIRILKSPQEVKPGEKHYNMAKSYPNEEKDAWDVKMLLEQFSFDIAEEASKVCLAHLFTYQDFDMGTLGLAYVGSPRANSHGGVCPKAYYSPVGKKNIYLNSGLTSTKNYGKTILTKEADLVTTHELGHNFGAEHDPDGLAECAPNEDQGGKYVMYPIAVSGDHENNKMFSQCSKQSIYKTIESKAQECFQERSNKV

A word on the AUC: it is concentration integrated over time. For orientation: Ki means the equilibrium dissociation constant of an inhibitor or competing ligand from its target. The term IC50 denotes the concentration at which inhibition is half-maximal. In the case of `COc1ccc2c(c1)C(=O)N(C[C@@]1(c3cc4c(C)nc(C)cc4o3)NC(=O)NC1=O)C2` [Compound 2257], the exposure (AUC) in series [1] (plasma 0.5-6 h post-dosing) was 4.23 µM·h. In addition, the Ki in series [2] (read-out: Ki) came to 0.00053 µM. Besides, in series [3] (setting [4]), the IC50 was 0.676 µM.

`COc1ccc2c(c1)C(=O)N(C[C@@]1(c3cc4nc(N5CCC[C@H]5CO)ccc4o3)NC(=O)NC1=O)C2` [Compound 1513]: the AUC in series [1] (plasma 0.5-6 h) was determined as 0.524 µM·h. The Ki in series [2] (read-out: Ki) was 0.0007 µM. Further, the IC50 in series [3] (setting [5]) stood at 0.526 µM.

On to `COc1ccc2c(c1)C(=O)N(C[C@@]1(c3cc4nc(N5CCOCC5)ccc4o3)NC(=O)NC1=O)C2` [Compound 2163], for which the AUC in series [1] (plasma 0.5-6 h post-dosing) came out at 3.64 µM·h. For the same compound, in series [2] (read-out: Ki), the Ki worked out at 0.000563 µM. Besides, the IC50 in series [3] (setting [4]) came out at 1.12 µM.

On to `COc1ccc2c(c1)C(=O)N(C[C@@]1(c3cc4ccc(NC(C)=O)nc4o3)NC(=O)NC1=O)C2` [Compound 2249], for which the AUC in series [1] (plasma 0.5-6 h post-dosing) was found to be 0.974 µM·h. In addition, in series [2] (read-out: Ki), the Ki is 0.00065 µM. Moreover, in series [3] (setting [4]), the half-inhibitory concentration (IC50) is 0.178 µM.

With `COc1ccc2c(c1)C(=O)N(C[C@@]1(c3cn4ccsc4n3)NC(=O)NC1=O)C2` [Compound 502C], the AUC in series [1] (plasma 0.5-6 h) is 2.22 µM·h. In addition, the Ki in series [2] (Ki) is 0.00126 µM. Besides, in series [3] (setting [5]), the IC50 was 0.538 µM.

As for `COc1ccc2c(c1)C(=O)N(C[C@@]1(c3cc4cc(-c5csc(N)n5)ccc4o3)NC(=O)NC1=O)C2` [Compound 2220], the AUC in series [1] (plasma 0.5-6 h post-dosing) stood at 0.165 µM·h. In addition, the Ki in series [2] (read-out: Ki) turned out to be 0.000243 µM. In addition, the IC50 in series [3] (setting [4]) is 0.722 µM.

Turning to `COc1ccc2c(c1)C(=O)N(C[C@@]1(c3cc4cnc(-c5ccccc5F)cc4o3)NC(=O)NC1=O)C2` [Compound 2234], the AUC in series [1] (plasma 0.5-6 h post-dosing) is 127 µM·h. Besides, the Ki in series [2] (read-out: Ki) is 0.000527 µM. Also, the IC50 in series [3] (setting [4]) worked out at 14.3 µM.

In the case of `COc1ccc2c(c1)C(=O)N(C[C@@]1(c3cc4c(OC)nccc4o3)NC(=O)NC1=O)C2` [Compound 2307], the AUC in series [1] (setting [6]) was found to be 41.4 µM·h. For the same compound, the Ki in series [2] (read-out: Ki) was 0.000437 µM. Moreover, in series [3] (setting [7]), the half-maximal inhibitory concentration (IC50) is 0.604 µM.

`CCCn1cc(-c2ccc3oc([C@]4(CN5Cc6ccc(OC)cc6C5=O)NC(=O)NC4=O)cc3n2)cn1` [Compound 2117]: in series [1] (plasma 0.5-6 h post-dosing), the AUC is 0.32 µM·h. The Ki in series [2] (read-out: Ki) amounted to 0.000408 µM. For the same compound, in series [3] (setting [4]), the IC50 turned out to be 1.01 µM.

Consider `COc1ccc2c(c1)C(=O)N(C[C@@]1(c3cc4cc(-c5ccnc(N)n5)ccc4o3)NC(=O)NC1=O)C2` [Compound 2245], for which, in series [1] (plasma 0.5-6 h post-dosing), the AUC was 6.03 µM·h. For the same compound, in series [2] (read-out: Ki), the Ki was 0.000456 µM. Moreover, the IC50 in series [3] (setting [4]) came out at 1.06 µM.

As to `COc1ccc2c(c1Cl)C(=O)N(C[C@@]1(c3cc4ncccc4o3)NC(=O)NC1=O)C2` [Compound 2153], the AUC in series [1] (plasma 0.5-6 h post-dosing) came out at 1.76 µM·h. The Ki in series [2] (read-out: Ki) was 0.0011 µM. Moreover, in series [3] (setting [4]), the IC50 is 2.65 µM.

As to `CCc1cc2oc([C@]3(CN4Cc5ccc(OC)cc5C4=O)NC(=O)NC3=O)cc2cn1` [Compound 2290], the AUC in series [1] (setting [6]) worked out at 20.3 µM·h. The inhibition constant Ki in series [2] (read-out: Ki) was determined as 0.000264 µM. The half-inhibitory concentration (IC50) in series [3] (setting [7]) stood at 0.643 µM.

With `COc1ccc2c(c1F)C(=O)N(C[C@@]1(c3cc4ccncc4o3)NC(=O)NC1=O)C2` [Compound 2272], the AUC in series [1] (plasma 0.5-6 h post-dosing) turned out to be 2.79 µM·h. Besides, the Ki in series [2] (read-out: Ki) worked out at 0.0003 µM. The IC50 in series [3] (setting [4]) turned out to be 0.167 µM.

Turning to `COc1ccc2c(c1)C(=O)N(C[C@@]1(c3cc4nc(-c5cn[nH]c5)ccc4o3)NC(=O)NC1=O)C2` [Compound 2100], in series [1] (plasma 0.5-6 h post-dosing), the AUC was 0.104 µM·h. Moreover, the Ki in series [2] (read-out: Ki) is 0.000197 µM. The IC50 in series [3] (setting [4]) turned out to be 0.0994 µM.

Consider `COc1ccc2c(c1F)C(=O)N(C[C@@]1(c3cc4nc(C5=CCNCC5)c(F)cc4o3)NC(=O)NC1=O)C2` [Compound 1320], for which the AUC in series [1] (plasma 0.5-6 h) came to 0.101 µM·h. The Ki in series [2] (Ki) was determined as 0.00037 µM. Also, the half-inhibitory concentration (IC50) in series [3] (setting [5]) amounted to 0.055 µM.

As to `CNC(=O)c1ccc2oc([C@]3(CN4Cc5ccc(OC)cc5C4=O)NC(=O)NC3=O)cc2n1` [Compound 2462], the area under the curve (AUC) in series [1] (setting [6]) was 1.07 µM·h. In series [2] (read-out: Ki), the Ki was 0.000859 µM. The IC50 in series [3] (setting [7]) was found to be 0.28 µM.

In the case of `COc1ccc2c(c1)C(=O)N(C[C@@]1(c3cc4nc(N5C(=O)CCC5C)ccc4o3)NC(=O)NC1=O)C2` (stereo partly drawn) [Compound 2161], in series [1] (plasma 0.5-6 h post-dosing), the AUC is 4.79 µM·h. Besides, the inhibitory constant (Ki) in series [2] (read-out: Ki) was determined as 0.00054 µM. Further, the IC50 in series [3] (setting [4]) is 0.186 µM.
